Results on 12 compounds are retold here after patent US20210253626A1, “PRODRUGS OF FULVESTRANT” (KASHIV BIOSCIENCES, LLC, priority 2018, published 2021).

In brackets after ≈: the same amount, converted by molar mass. Structures can show the parent of a compound that is named as a salt. Where two headings read alike, the source gives them in different places. Some results are limits rather than exact numbers.

Data set [1] can be described thus: physchem. As to conditions: 25 °C, pH 7.4, aqueous buffer, kinetic from dmso stock.
Experimental: Solubility Test Procedure I:
(§1) A 50 mmol stock solution for each test compound was prepared using dimethyl sulfoxide. From this stock solution, a working solution of 1 mmol was prepared by diluting with dimethyl sulfoxide. The working solution of 1 mmol was then serially diluted using dimethyl sulfoxide. Then, 5-20 μl of stock solution is added to 1 ml of phosphate buffer solution of pH 7.4. The solution was then stirred for 4 h at 25° C. in order to reach equilibrium. After this incubation period, the solution was filtered using 0.45 micron PVDF injector filters to remove the insoluble fraction of the compound and subsequently filtrate is taken for quantification using UV Detector. The concentration of test sample was calculated using the linearity/calibration curve.
For data set [2] the following is noted: 4 h, pH 7.4.
Experimental: Solubility Test Procedure I:
as §1
Data set [3] is described as follows: Kinetic solubility (Solubility Test Procedure I). The conditions noted are these: for Increase in solubility compare to fulvestrant (Fold): kinetic aqueous solubility at pH 7.4; for solubility at 4 h: phosphate buffer, 25 °C, pH 7.4, aqueous buffer, kinetic from dmso stock.
Experimental: Solubility Test Procedure I:
as §1
Data set [4] can be described thus: physchem. As to conditions: thermodynamic from solid.
Experimental: Solubility Test Procedure II:
Stock solutions of the test compounds and fulvestrant were prepared in phosphate buffered saline (PBS) pH 7.4 and sodium acetate buffer pH 4.0, which was incubated for 24 h at room temperature with constant mixing at 100 rpm in the same tube. After incubation, the tubes were centrifuged for 20 min. at 10000 rpm. Later 200 μL of sample was taken and filtered. The filtrate was analysed by HPLC-UV against 0.0012 mg/ml, 0.037 mg/mL, 0.3 mg/ml, 0.1 mg/ml and 1 mg/ml of dimethylsulfoxide (DMSO) stock.
Solubility (μg/ml)=[Peak area of sample/Peak area of standard]×Concentration of standard % Aqueous solubility: [Test solubility (μg/ml)/incubation concentration (μg/ml)]×100
Where [5] appears, read: pH 4, aqueous buffer, Thermodynamic solubility (mg/mL) pH 4.0, sodium acetate buffer pH 4.0, 24 h room temperature, test compound concentration 1 mg/mL.

Regarding `CN(C)CC(=O)Oc1ccc2c(c1)C[C@@H](CCCCCCCCC[S+]([O-])CCCC(F)(F)C(F)(F)F)[C@@H]1[C@@H]2CC[C@]2(C)[C@@H](O)CC[C@@H]12` (stereo partly drawn) [Example 1, (7R,8R,9S,13S,14S,17S)-17-hydroxy-13-methyl-7-(9-((4,4,5,5,5-pentafluoropentyl)sulfinyl)nonyl)-7,8,9,11,12,13,14,15,16,17-decahydro-6H-cyclopenta[a]phenanthren-3-yl dimethylglycinate], in the data set “physchem [1]”, the solubility at 4 h was 0.04 µM (≈ 0.0277 µg/mL). Further, the “Increase in solubility compare to fulvestrant (Fold)” value (shortened to “Increase … (Fold)”) in data set [2] was 8 Fold.
Regarding `C[C@]12CC[C@@H]3c4ccc(OC(=O)CN5CCCCC5)cc4C[C@@H](CCCCCCCCC[S+]([O-])CCCC(F)(F)C(F)(F)F)[C@H]3[C@@H]1CC[C@@H]2O` (stereo partly drawn) [Example 3, (7R,8R,9S,13S,14S,17S)-17-hydroxy-13-methyl-7-(9-((4,4,5,5,5-pentafluoropentyl)sulfinyl)nonyl)-7,8,9,11,12,13,14,15,16,17-decahydro-6H-cyclopenta[a]phenanthren-3-yl 2-(piperidin-1-yl)acetate hydrochloride], in data set [3], the “Increase … (Fold)” value was determined as 669 Fold and the solubility at 4 h was 3.3 µM.
Turning to `CN1CCN(C(=O)Oc2ccc3c(c2)C[C@@H](CCCCCCCCC[S+]([O-])CCCC(F)(F)C(F)(F)F)[C@@H]2[C@@H]3CC[C@]3(C)[C@@H](O)CC[C@@H]23)CC1` (stereo partly drawn) [Example 4, (7R,8R,9S,13S,14S,17S)-17-hydroxy-13-methyl-7-(9-((4,4,5,5,5-pentafluoropentyl)sulfinyl)nonyl)-7,8,9,11,12,13,14,15,16,17-decahydro-6H-cyclopenta[a]phenanthren-3-yl 4-methylpiperazine-1-carboxylate], in data set [3], the “Increase … (Fold)” value is on record as 97 Fold and the concentration in solution (solubility at 4 h) came to 0.5 µM (≈ 0.366 µg/mL). For the same compound, the thermodynamic solubility at 24 h in the data set “physchem [4]” (setting [5]) turned out to be 790 µg/mL (≈ 1080 µM).
Consider `C[C@]12CC[C@@H]3c4ccc(OC(=O)c5ccccc5O)cc4C[C@@H](CCCCCCCCC[S+]([O-])CCCC(F)(F)C(F)(F)F)[C@H]3[C@@H]1CC[C@@H]2O` (stereo partly drawn) [Example 6, (7R,8R,9S,13S,14S,17S)-17-hydroxy-13-methyl-7-(9-((4,4,5,5,5-pentafluoropentyl)sulfinyl)nonyl)-7,8,9,11,12,13,14,15,16,17-decahydro-6H-cyclopenta[a]phenanthren-3-yl 2-hydroxybenzoate], for which, in data set [3], the “Increase … (Fold)” value was determined as 562 Fold and the solubility at 4 h amounted to 2.7 µM (≈ 1.96 µg/mL).
Taken in the same sequence, the figures for `CCOP(=O)(OCC)Oc1ccc2c(c1)C[C@@H](CCCCCCCCC[S+]([O-])CCCC(F)(F)C(F)(F)F)[C@@H]1[C@@H]2CC[C@]2(C)[C@@H](O)CC[C@@H]12` (stereo partly drawn) [Example 7, diethyl ((7R,8R,9S,13S,14S,17S)-17-hydroxy-13-methyl-7-(9-((4,4,5,5,5-pentafluoropentyl)sulfinyl)nonyl)-7,8,9,11,12,13,14,15,16,17-decahydro-6H-cyclopenta[a]phenanthren-3-yl) phosphate] were 35 Fold and 0.2 µM.
In the case of `C[C@]12CC[C@@H]3c4ccc(OC(=O)N5CCC(N6CCCCC6)CC5)cc4C[C@@H](CCCCCCCCC[S+]([O-])CCCC(F)(F)C(F)(F)F)[C@H]3[C@@H]1CC[C@@H]2O` (stereo partly drawn) [Example 9, (7R,8R,9S,13S,14S,17S)-17-hydroxy-13-methyl-7-(9-((4,4,5,5,5-pentafluoropentyl)sulfinyl)nonyl)-7,8,9,11,12,13,14,15,16,17-decahydro-6H-cyclopenta[a]phenanthren-3-yl[1,4′-bipiperidine]-1′-carboxylate], in data set [3], the “Increase … (Fold)” value came to 22 Fold and the solubility at 4 h was found to be 0.1 µM (≈ 0.0801 µg/mL). In the data set “physchem [4]” (setting [5]), this compound showed a thermodynamic solubility at 24 h of 700 µg/mL (≈ 874 µM).
Take `CN1CCC(CC(=O)Oc2ccc3c(c2)C[C@@H](CCCCCCCCC[S+]([O-])CCCC(F)(F)C(F)(F)F)[C@@H]2[C@@H]3CC[C@]3(C)[C@@H](O)CC[C@@H]23)CC1` (stereo partly drawn) [Example 15, (7R,8R,9S,13S,14S,17S)-17-hydroxy-13-methyl-7-(9-((4,4,5,5,5-pentafluoropentyl)sulfinyl)nonyl)-7,8,9,11,12,13,14,15,16,17-decahydro-6H-cyclopenta[a]phenanthren-3-yl 2-(1-methylpiperidin-4-yl)acetate]: the thermodynamic solubility at 24 h in the data set “physchem [4]” (pH 4, aqueous buffer) worked out at 630 µg/mL (≈ 845 µM).
As to `CN1CCCN(C(=O)Oc2ccc3c(c2)C[C@@H](CCCCCCCCC[S+]([O-])CCCC(F)(F)C(F)(F)F)[C@@H]2[C@@H]3CC[C@]3(C)[C@@H](O)CC[C@@H]23)CC1` (stereo partly drawn) [Example 19, (7R,8R,9S,13S,14S,17S)-17-hydroxy-13-methyl-7-(9-((4,4,5,5,5-pentafluoropentyl)sulfinyl)nonyl)-7,8,9,11,12,13,14,15,16,17-decahydro-6H-cyclopenta[a]phenanthren-3-yl 4-methyl-1,4-diazepane-1-carboxylate], in “physchem [4]” (pH 4, aqueous buffer, Thermodynamic solubility (mg/mL) pH 4.0, sodium acetate buffer pH 4.0, 24 h room temperature, test compound concentration 2 mg/mL), the thermodynamic solubility at 24 h came to 1050 µg/mL (≈ 1410 µM).
`C[C@]12CC[C@@H]3c4ccc(OP(=O)(O)O)cc4C[C@@H](CCCCCCCCC[S+]([O-])CCCC(F)(F)C(F)(F)F)[C@H]3[C@@H]1CC[C@@H]2O` (stereo partly drawn) [Example 20, (7R,8R,9S,13S,14S,17S)-17-hydroxy-13-methyl-7-(9-((4,4,5,5,5-pentafluoropentyl)sulfinyl)nonyl)-7,8,9,11,12,13,14,15,16,17-decahydro-6H-cyclopenta[a]phenanthren-3-yl dihydrogen phosphate]: the solubility (thermodynamic) in the data set “physchem [4]” (pH 4, aqueous buffer) worked out at 740 µg/mL; in the data set “physchem [4]” (pH 7.4, aqueous buffer) it was 1220 µg/mL.
In the case of `C[C@]12CC[C@@H]3c4ccc(OP(=O)(O)O)cc4C[C@@H](CCCCCCCCC[S+]([O-])CCCC(F)(F)C(F)(F)F)[C@H]3[C@@H]1CC[C@@H]2O` (stereo partly drawn) [Example 21, (7R,8R,9S,13S,14S,17S)-17-hydroxy-13-methyl-7-(9-((4,4,5,5,5-pentafluoropentyl)sulfinyl)nonyl)-7,8,9,11,12,13,14,15,16,17-decahydro-6H-cyclopenta[a]phenanthren-3-yl dihydrogen phosphate disodium], the solubility (thermodynamic) at 24 h in “physchem [4]” (pH 7.4, aqueous buffer, Thermodynamic solubility (mg/mL) pH 7.4, PBS pH 7.4, 24 h room temperature, test compound concentration 5 mg/mL) is over 5000 µg/mL.
Consider `C[C@]12CCC3c4ccc(OCOP(=O)(O)O)cc4C[C@@H](CCCCCCCCC[S+]([O-])CCCC(F)(F)C(F)(F)F)[C@H]3[C@@H]1CC[C@@H]2O` (stereo partly drawn) [Example 44, ((7R,8R,13S,14S,17S)-17-hydroxy-13-methyl-7-(9-(4,4,5,5,5-pentafluoropentylsulfinyl)nonyl)-7,8,9,11,12,13,14,15,16,17-decahydro-6H-cyclopenta[a]phenanthren-3-yloxy)methyl dihydrogen phosphate], for which the thermodynamic solubility at 24 h in “physchem [4]” (pH 4, aqueous buffer) was over 1000 µg/mL; in “physchem [4]” (pH 7.4, aqueous buffer), over 15000 µg/mL.
In turn, `CC(C)[C@H](NC(=O)Oc1ccc2c(c1)C[C@@H](CCCCCCCCC[S+]([O-])CCCC(F)(F)C(F)(F)F)[C@@H]1C2CC[C@]2(C)[C@@H](O)CC[C@@H]12)C(=O)O` (stereo partly drawn) [Example 45, (2S)-2-(((7R,8R,13S,14S,17S)-17-hydroxy-13-methyl-7-(9-(4,4,5,5,5-pentafluoropentylsulfinyl)nonyl)-7,8,9,11,12,13,14,15,16,17-decahydro-6H-cyclopenta[a]phenanthren-3-yloxy)carbonylamino)-3-methylbutanoic acid] displayed a solubility (thermodynamic) in the data set “physchem [4]” (pH 7.4, aqueous buffer) of 1250 µg/mL (≈ 1670 µM).
